Data published in patent publication US9783524B2, “Protein tyrosine kinase modulators and methods of use” (BETTA PHARMACEUTICALS CO., LTD., priority 2013, dated 2017).
Like-named read-outs stand apart in the source and are kept apart here.

Tests used:
Type in all cases: biochemical, human
[1] = tested on: ALK (h)
Description: (§1) Assay conditions included 10 μM ATP and 100 nM test compounds.
(§2) All reactions are initiated by the addition of the MgATP mix. After incubation for 40 minutes at room temperature, the reaction is stopped by the addition of 3% phosphoric acid solution. 10 μL of the reaction is then spotted onto a P30 filtermat and washed three times for 5 minutes in 75 mM phosphoric acid and once in methanol prior to drying and scintillation counting. This assay is performed by Millipore. The experiment is carried out in duplicate. The value for the control sample (DMSO) was set to 100%, and the values for the compound-treated samples were expressed as activity relative to the control sample.

[2] = tested on: EGFR (L858R) (h)
Description: as §1
(§3) All reactions are initiated by the addition of the MgATP mix. After incubation for 40 minutes at room temperature, the reaction is stopped by the addition of 3% phosphoric acid solution. 10 μL of the reaction is then spotted onto a P30 filtermat and washed three times for 5 minutes in 75 mM phosphoric acid and once in methanol prior to drying and scintillation counting. […] The experiment is carried out in duplicate. The value for the control sample (DMSO) was set to 100%, and the values for the compound-treated samples were expressed as activity relative to the control sample.
(§4) (specific activity approx. 500 cpm/pmol, concentration as required) and 0.1 μM test compound.

[3] = tested on: EGFR (T790M, L858R) (h)
Description: as §1, §3, §4

[4] = tested on: EGFR (h)
Description: as §1, §3, §4

[5] = tested on: EGFR (T790M) (h)
Description: as §1, §2

[6] = 0.1 μM test compound, 10 μM ATP, remaining activity relative to DMSO control = 100%

With COc1cc(N2CCC(N(C)C)CC2)ccc1Nc1ncc(Cl)c(Nc2ccccc2C(=O)C(N)=O)n1 [Example 4, 2-(2-(5-chloro-2-(4-(4-(dimethylamino)piperidin-1-yl)-2-methoxyphenylamino)pyrimidin-4-ylamino)phenyl)-2-oxoacetamide] the “Activity (control) % ALK (h)” value [1, 6] was 8%, the “Activity (control) % EGFR (L858R) (h)” value [2] was 8% and the “Activity (control) % EGFR (T790M, L858R) (h)” value [3] was 2%. For the same compound, the “Activity (control) % EGFR (h)” value [4] was 65% and the “Activity (control) % EGFR (T790M) (h)” value [5] was 4%.
In the case of C=CC(=O)Nc1cc(Nc2ncc(Cl)c(Nc3ccccc3C(=O)C(=O)N(C)C)n2)ccc1OCCN(C)C [Example 115, N-(5-(5-chloro-4-(2-(2-(dimethylamino)-2-oxoacetyl)phenylamino)pyrimidin-2-ylamino)-2-(2-(dimethylamino)ethoxy)phenyl)acrylamide], the “Activity (control) % ALK (h)” value [1, 6] is reported as 6%.
In the case of C=CC(=O)Nc1cccc(Nc2ncc(Cl)c(Nc3ccccc3C(=O)C(=O)N(C)C)n2)c1 [Example 40, N-(3-(5-chloro-4-(2-(2-(dimethylamino)-2-oxoacetyl)phenylamino)pyrimidin-2-ylamino)phenyl)acrylamide], the “Activity (control) % ALK (h)” value [1, 6] is reported as 28%, the “Activity (control) % EGFR (T790M, L858R) (h)” value [3, 6] is reported as 24% and the “Activity (control) % EGFR (T790M) (h)” value [5, 6] is reported as 79%.
For C=CC(=O)Nc1cc(Nc2ncc(Cl)c(Nc3ccccc3C(=O)C(=O)NC)n2)ccc1OC [Example 64, N-(5-(5-chloro-4-(2-(2-(methylamino)-2-oxoacetyl)phenylamino)pyrimidin-2-ylamino)-2-methoxyphenyl)acrylamide], the “Activity (control) % ALK (h)” value [1, 6] was 47%, the “Activity (control) % EGFR (L858R) (h)” value [2, 6] was 100% and the “Activity (control) % EGFR (T790M, L858R) (h)” value [3, 6] was 39%. The “Activity (control) % EGFR (T790M) (h)” value [5, 6] was 79%.
CN(C)C(=O)C(=O)c1ccccc1Nc1nc(Nc2ccc(F)c(NC(=O)CCN3CCOCC3)c2)ncc1Cl [Example 123, N-(5-(5-chloro-4-(2-(2-(dimethylamino)-2-oxoacetyl)phenylamino)pyrimidin-2-ylamino)-2-fluorophenyl)-3-morpholinopropanamide] was tested, and the “Activity (control) % ALK (h)” value [1, 6] was 17%, the “Activity (control) % EGFR (L858R) (h)” value [2, 6] was 94% and the “Activity (control) % EGFR (T790M, L858R) (h)” value [3, 6] was 31%. The “Activity (control) % EGFR (T790M) (h)” value [5, 6] was 84%.
For CN(C)C/C=C/C(=O)Nc1cccc(Nc2ncc(Cl)c(Nc3ccccc3C(=O)C(=O)N(C)C)n2)c1 [Example 114, (E)-N-(3-(5-chloro-4-(2-(2-(dimethylamino)-2-oxoacetyl)phenylamino)pyrimidin-2-ylamino)phenyl)-4-(dimethylamino)but-2-enamide], the “Activity (control) % ALK (h)” value [1, 6] was 10%, the “Activity (control) % EGFR (L858R) (h)” value [2, 6] was 52% and the “Activity (control) % EGFR (T790M, L858R) (h)” value [3, 6] was 8%. The “Activity (control) % EGFR (h)” value [4, 6] was 91% and the “Activity (control) % EGFR (T790M) (h)” value [5, 6] was 47%.
With COc1cc(Nc2ncc(Cl)c(Nc3ccccc3C(=O)C(=O)N(C)C)n2)ccc1N1CCN(C)CC1 [Example 61, 2-(2-(5-chloro-2-(3-methoxy-4-(4-methylpiperazin-1-yl)phenylamino)pyrimidin-4-ylamino)phenyl)-N,N-dimethyl-2-oxoacetamide] the “Activity (control) % ALK (h)” value [1] was 5%, the “Activity (control) % EGFR (L858R) (h)” value [2] was 70% and the “Activity (control) % EGFR (T790M, L858R) (h)” value [3] was 13%. For the same compound, the “Activity (control) % EGFR (T790M) (h)” value [5] was 54%.
For C=C(CN(C)CCN(C)C)C(=O)Nc1ccc(OC)c(Nc2ncc(Cl)c(Nc3ccccc3C(=O)C(=O)N(C)C)n2)c1 [Example 126, N-(3-(5-chloro-4-(2-(2-(dimethylamino)-2-oxoacetyl)phenylamino)pyrimidin-2-ylamino)-4-methoxyphenyl)-2-(((2-(dimethylamino)ethyl)(methyl)amino)methyl)acrylamide], the “Activity (control) % ALK (h)” value [1, 6] was 19%, the “Activity (control) % EGFR (L858R) (h)” value [2, 6] was 47% and the “Activity (control) % EGFR (T790M, L858R) (h)” value [3, 6] was 2%. For the same compound, the “Activity (control) % EGFR (h)” value [4, 6] was 93% and the “Activity (control) % EGFR (T790M) (h)” value [5, 6] was 5%.
For C=CC(=O)N1CCOc2ccc(Nc3ncc(Cl)c(Nc4ccccc4C(=O)C(=O)N(C)C)n3)cc21 [Example 87, 2-(2-(2-(4-acryloyl-3,4-dihydro-2H-benzo[b][1,4]oxazin-6-ylamino)-5-chloropyrimidin-4-ylamino)phenyl)-N,N-dimethyl-2-oxoacetamide], the “Activity (control) % ALK (h)” value [1] was 5%.
For CCC(=O)Nc1cc(Nc2ncc(Cl)c(Nc3ccccc3C(=O)C(=O)N(C)C)n2)ccc1OCCN(C)C [Example 120, N-(5-(5-chloro-4-(2-(2-(dimethylamino)-2-oxoacetyl)phenylamino)pyrimidin-2-ylamino)-2-(2-(dimethylamino)ethoxy)phenyl)propionamide], the “Activity (control) % ALK (h)” value [1, 6] was 8%, the “Activity (control) % EGFR (L858R) (h)” value [2, 6] was 76% and the “Activity (control) % EGFR (T790M, L858R) (h)” value [3, 6] was 14%. For the same compound, the “Activity (control) % EGFR (T790M) (h)” value [5, 6] was 62%.
In the case of C=CC(=O)Nc1cc(Nc2ncc(Cl)c(Nc3ccccc3C(=O)C(=O)N(CC)CC)n2)ccc1OC [Example 132, N-(5-(5-chloro-4-(2-(2-(diethylamino)-2-oxoacetyl)phenylamino)pyrimidin-2-ylamino)-2-methoxyphenyl)acrylamide], the “Activity (control) % ALK (h)” value [1, 6] is reported as 16%, the “Activity (control) % EGFR (T790M, L858R) (h)” value [3, 6] is reported as 30% and the “Activity (control) % EGFR (T790M) (h)” value [5, 6] is reported as 77%.
With COc1ccc(NC(=O)/C=C/CN(C)C)cc1Nc1ncc(Cl)c(Nc2ccccc2C(=O)C(=O)N(C)C)n1 [Example 80, (E)-N-(3-(5-chloro-4-(2-(2-(dimethylamino)-2-oxoacetyl)phenylamino)pyrimidin-2-ylamino)-4-methoxyphenyl)-4-(dimethylamino)but-2-enamide] the “Activity (control) % ALK (h)” value [1, 6] was 10%, the “Activity (control) % EGFR (L858R) (h)” value [2, 6] was 43% and the “Activity (control) % EGFR (T790M, L858R) (h)” value [3, 6] was 7%. For the same compound, the “Activity (control) % EGFR (T790M) (h)” value [5, 6] was 42%.
For C=C(CN1CCCCC1)C(=O)Nc1cc(Nc2ncc(Cl)c(Nc3ccccc3C(=O)C(=O)N(C)C)n2)ccc1N1CCOCC1 [Example 129, N-(5-(5-chloro-4-(2-(2-(dimethylamino)-2-oxoacetyl)phenylamino)pyrimidin-2-ylamino)-2-morpholinophenyl)-2-(piperidin-1-ylmethyl)acrylamide], the “Activity (control) % ALK (h)” value [1, 6] was 8%, the “Activity (control) % EGFR (L858R) (h)” value [2, 6] was 75% and the “Activity (control) % EGFR (T790M, L858R) (h)” value [3, 6] was 3%. The “Activity (control) % EGFR (T790M) (h)” value [5, 6] was 24%.
C=C(CN(C)CCN(C)C)C(=O)Nc1cccc(Nc2ncc(Cl)c(Nc3ccccc3C(=O)C(=O)N(C)C)n2)c1 [Example 125, N-(3-(5-chloro-4-(2-(2-(dimethylamino)-2-oxoacetyl)phenylamino)pyrimidin-2-ylamino)phenyl)-2-(((2-(dimethylamino)ethyl)(methyl)amino)methyl)acrylamide] was tested, and the “Activity (control) % ALK (h)” value [1, 6] was 20%, the “Activity (control) % EGFR (L858R) (h)” value [2, 6] was 54% and the “Activity (control) % EGFR (T790M, L858R) (h)” value [3, 6] was 2%. The “Activity (control) % EGFR (T790M) (h)” value [5, 6] was 18%.
For COc1cc(N2CCN(C(C)=O)CC2)ccc1Nc1ncc(Cl)c(Nc2ccccc2C(=O)C(=O)N(C)C)n1 [Example 53, 2-(2-(2-(4-(4-acetylpiperazin-1-yl)-2-methoxyphenylamino)-5-chloropyrimidin-4-ylamino)phenyl)-N,N-dimethyl-2-oxoacetamide], the “Activity (control) % EGFR (L858R) (h)” value [2, 6] was 60%, the “Activity (control) % EGFR (T790M, L858R) (h)” value [3, 6] was 4% and the “Activity (control) % EGFR (T790M) (h)” value [5, 6] was 21%.
For C=CC(=O)Nc1cc(Nc2ncc(Cl)c(Nc3ccccc3C(=O)C(=O)N(C)C)n2)ccc1N1CCN(C)CC1 [Example 111, N-(5-(5-chloro-4-(2-(2-(dimethylamino)-2-oxoacetyl)phenylamino)pyrimidin-2-ylamino)-2-(4-methylpiperazin-1-yl)phenyl)acrylamide], the “Activity (control) % ALK (h)” value [1, 6] was 8%, the “Activity (control) % EGFR (L858R) (h)” value [2, 6] was 76% and the “Activity (control) % EGFR (T790M, L858R) (h)” value [3, 6] was 11%. The “Activity (control) % EGFR (T790M) (h)” value [5, 6] was 59%.
In the case of COc1cc(Nc2ncc(Cl)c(Nc3ccccc3C(=O)C(=O)N(C)C)n2)ccc1N1CCOCC1 [Example 117, 2-(2-(5-chloro-2-(3-methoxy-4-morpholinophenylamino)pyrimidin-4-ylamino)phenyl)-N,N-dimethyl-2-oxoacetamide], the “Activity (control) % ALK (h)” value [1, 6] is reported as 8%, the “Activity (control) % EGFR (L858R) (h)” value [2, 6] is reported as 88% and the “Activity (control) % EGFR (T790M, L858R) (h)” value [3, 6] is reported as 14%. The “Activity (control) % EGFR (T790M) (h)” value [5, 6] was 65%.
In the case of COc1ccc(NC(=O)/C=C/CN2CCCCC2)cc1Nc1ncc(Cl)c(Nc2ccccc2C(=O)C(=O)N(C)C)n1 [Example 72, (E)-N-(3-(5-chloro-4-(2-(2-(dimethylamino)-2-oxoacetyl)phenylamino)pyrimidin-2-ylamino)-4-methoxyphenyl)-4-(piperidin-1-yl)but-2-enamide], the “Activity (control) % ALK (h)” value [1, 6] is reported as 14%, the “Activity (control) % EGFR (L858R) (h)” value [2, 6] is reported as 28% and the “Activity (control) % EGFR (T790M, L858R) (h)” value [3, 6] is reported as 9%. The “Activity (control) % EGFR (T790M) (h)” value [5, 6] was 54%.
With C=CC(=O)Nc1cccc(Nc2nc(Nc3ccc(N4CCN(C(C)=O)CC4)cc3OC)ncc2C(F)(F)F)c1 [CO-1686, reference compound] the “Activity (control) % EGFR (L858R) (h)” value [2] was 97%, the “Activity (control) % EGFR (T790M, L858R) (h)” value [3] was 7% and the “Activity (control) % EGFR (h)” value [4] was 92%. For the same compound, the “Activity (control) % EGFR (T790M) (h)” value [5] was 21%.
With C=CC(=O)Nc1ccc(OC)c(Nc2ncc(Cl)c(Nc3ccccc3C(=O)C(=O)N(CC)CC)n2)c1 [Example 131, N-(3-(5-chloro-4-(2-(2-(diethylamino)-2-oxoacetyl)phenylamino)pyrimidin-2-ylamino)-4-methoxyphenyl)acrylamide] the “Activity (control) % ALK (h)” value [1, 6] was 9%, the “Activity (control) % EGFR (T790M, L858R) (h)” value [3, 6] was 27% and the “Activity (control) % EGFR (T790M) (h)” value [5, 6] was 82%.
For CCN(CC)C(=O)C(=O)c1ccccc1Nc1nc(Nc2ccc(N3CCN(C)CC3)c(OC)c2)ncc1Cl [Example 130, 2-(2-(5-chloro-2-(3-methoxy-4-(4-methylpiperazin-1-yl)phenylamino)pyrimidin-4-ylamino)phenyl)-N,N-diethyl-2-oxoacetamide], the “Activity (control) % ALK (h)” value [1, 6] was 13%, the “Activity (control) % EGFR (L858R) (h)” value [2, 6] was 98% and the “Activity (control) % EGFR (T790M, L858R) (h)” value [3, 6] was 22%. For the same compound, the “Activity (control) % EGFR (T790M) (h)” value [5, 6] was 84%.
C=CC(=O)Nc1ccc(N2CCN(C)CC2)c(Nc2ncc(Cl)c(Nc3ccccc3C(=O)C(=O)N(C)C)n2)c1 [Example 135, N-(3-(5-chloro-4-(2-(2-(dimethylamino)-2-oxoacetyl)phenylamino)pyrimidin-2-ylamino)-4-(4-methylpiperazin-1-yl)phenyl)acrylamide] was tested, and the “Activity (control) % ALK (h)” value [1, 6] was 80%, the “Activity (control) % EGFR (T790M, L858R) (h)” value [3, 6] was 95% and the “Activity (control) % EGFR (T790M) (h)” value [5, 6] was 96%.
